Molecular target: T1, farnesol X receptor (FXR) (Homo sapiens, UniProt Q96RI1)
T1 construct: endogenous in cells; host or cells: HepG2
T1 sequence (Q96RI1 1-486): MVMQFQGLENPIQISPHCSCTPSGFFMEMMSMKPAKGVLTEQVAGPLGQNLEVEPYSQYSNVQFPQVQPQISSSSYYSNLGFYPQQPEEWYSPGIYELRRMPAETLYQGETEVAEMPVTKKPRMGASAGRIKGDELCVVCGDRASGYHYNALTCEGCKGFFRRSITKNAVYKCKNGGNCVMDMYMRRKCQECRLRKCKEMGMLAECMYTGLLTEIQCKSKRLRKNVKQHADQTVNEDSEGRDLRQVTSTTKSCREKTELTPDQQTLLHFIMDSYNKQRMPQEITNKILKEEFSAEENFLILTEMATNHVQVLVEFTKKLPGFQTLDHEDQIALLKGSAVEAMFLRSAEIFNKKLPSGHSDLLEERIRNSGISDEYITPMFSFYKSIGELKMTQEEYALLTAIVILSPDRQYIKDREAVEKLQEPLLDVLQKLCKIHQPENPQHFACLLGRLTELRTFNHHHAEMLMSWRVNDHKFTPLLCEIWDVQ
Test: Farnesol X receptor (FXR) reporter gene assay (dual luciferase) in HepG2 cells
Format: cell-based
Settings: for fold induction at 10 µM: HepG2 cells, drug treatment 24 hours, firefly/renilla luciferase ratio, Con = 1.00; for FXR activating effect compared with GW4064: statement on Table 4 data
Description: HepG2 cells were purchased from ATCC (Manassas, VA, USA) and cultured in Dulbecco's modified Eagle's medium (DMEM; Hyclone) containing 10% fetal bovine serum (FBS, Hyclone, Logan, UT, USA), 50 units/mL penicillin (Hyclone) and 50 μg/mL streptomycin (Hyclone). All cells were cultured to have a confluency of about 80% to 90% under the conditions of 37° C. and 5% Co2.
In order to measure FXR transcription factor activity, HepG2 cells (1×10^5 cells/well) were cultured in a 48-well cell culture plate (SPL Life Science Co., Gyeonggido, Korea) for 20 hours and then transduced using Lipofectamin L3000 (Invitrogen, San Diego, CA, USA). Luciferase is an enzyme that catalyzes light-emitting reactions. A plasmid in which the firefly luciferase gene was fused to farnesol X receptor (FXR) and a plasmid in which the renilla luciferase gene was fused to thymidine kinase (TK) were used for transduction. Reacted were 25 μL of serum and antibiotic-free Opti-MEM® (Life Technologies, Grand Island, NY) and 0.5 μL of Lipofectamin L3000 per 0.5 μg of FXR-firefly luciferase plasmid and 10 ng of TK-renilla luciferase plasmid, and the cells were reacted with the reaction mixture for 24 hours. Thereafter, DMEM medium containing 0.1% serum was treated with a drug for 24 hours. After the reaction was completed, the drug-treated culture medium was discarded, and lysis buffer was added at 0.4 ml/well to remove the cells, then the cells were dispensed into a 96-well white plate (SPL Life Science Co.), and the luminescence level was measured using the Dual-glo Luciferase Assay System (Promega, Madison, WI, USA). For the firefly luciferase activity (to see the level of FXR expression) and renilla luciferase activity (to provide a reference value by showing constant expression), the luminescence level was measured using the GloMax Multi Detection System (Promega) and then the relative ratio (firefly luciferase activity/renilla luciferase activity) was calculated.

| SMILES | fold induction at 10 µM | FXR activating effect compared with GW4064 |
| --- | --- | --- |
| Cc1onc(-c2ccccc2)c1COc1ccc(/C=C/C(=O)N[C@H](C(=O)O)C(C)C)cc1 [KS-036, (E)-(3-(4-((5-methyl-3-phenylisoxazol-4-yl)methoxy)phenyl)acryloyl)-L-valine] | 1.24 | – |
| Cc1onc(-c2ccccc2)c1COc1ccc(/C=C/C(=O)NCC(=O)O)cc1 [KS-024, (E)-(3-(4-((5-methyl-3-phenylisoxazol-4-yl)methoxy)phenyl)acryloyl)glycine] | 1.68 | – |
| Cc1onc(-c2c(Cl)cccc2Cl)c1COc1ccc(/C=C/C(=O)NCC(=O)O)cc1 [KS-023, (E)-(3-(4-((3-(2,6-dichlorophenyl)-5-methylisoxazol-4-yl)methoxy)phenyl)acryloyl)glycine] | 1.93 | – |
| Cc1onc(-c2c(Cl)cccc2Cl)c1COc1ccc(/C=C/C(=O)NCCC(=O)O)cc1 [KS-047, (E)-3-(3-(4-((3-(2,6-dichlorophenyl)-5-methylisoxazol-4-yl)methoxy)phenyl)acrylamido)propanoic acid] | 3.04 | – |
| O=C(O)CNC(=O)/C=C/c1ccc(OCc2ccc(-c3ccccc3)cc2)cc1 [KS-016, (E)-(3-(4-([1,1′-biphenyl]-4-ylmethoxy)phenyl)acryloyl)glycine] | 1.99 | – |
| COC(=O)[C@H](Cc1ccccc1)NC(=O)/C=C/c1ccc(OCc2c(-c3c(Cl)cccc3Cl)noc2C)cc1 [KS-038, methyl (E)-(3-(4-((3-(2,6-dichlorophenyl)-5-methylisoxazol-4-yl)methoxy)phenyl)acryloyl)-L-phenylalaninate] | 2.21 | – |
| CC(C)c1onc(-c2c(Cl)cccc2Cl)c1COc1ccc(/C=C/C(=O)N[C@H](C)C(=O)O)cc1 [KS-052, (E)-(3-(4-((3-(2,6-dichlorophenyl)-5-isopropylisoxazol-4-yl)methoxy)phenyl)acryloyl)-D-alanine] | 8.12 | superior to GW4064 |
| CCOC(=O)CNC(=O)/C=C/c1ccc(OCc2c(-c3c(Cl)cccc3Cl)noc2C)cc1 [KS-011, ethyl (E)-(3-(4-((3-(2,6-dichlorophenyl)-5-methylisoxazol-4-yl)methoxy)phenyl)acryloyl)glycinate] | 1.65 | – |
| CCOC(=O)CNC(=O)/C=C/c1ccc(OCc2ccc([N+](=O)[O-])cc2)cc1 [KS-006, ethyl (E)-(3-(4-((4-nitrobenzyl)oxy)phenyl)acryloyl)glycinate] | 1.38 | – |
| O=C(O)CNC(=O)/C=C/c1ccc(OCc2cccc(OC(F)(F)F)c2)cc1 [KS-019, (E)-(3-(4-((3-(trifluoromethoxy)benzyl)oxy)phenyl)acryloyl)glycine] | 1.19 | – |
| CCOC(=O)[C@H](C)NC(=O)/C=C/c1ccc(OCc2c(-c3c(Cl)cccc3Cl)noc2C(C)C)cc1 [KS-025, ethyl (E)-(3-(4-((3-(2,6-dichlorophenyl)-5-isopropylisoxazol-4-yl)methoxy)phenyl)acryloyl)-L-alaninate] | 10.9 | superior to GW4064 |
| Cc1onc(-c2c(Cl)cccc2Cl)c1COc1ccc(/C=C/C(=O)N[C@H](C(=O)O)C(C)C)cc1 [KS-035, (E)-(3-(4-((3-(2,6-dichlorophenyl)-5-methylisoxazol-4-yl)methoxy)phenyl)acryloyl)-L-valine] | 1.65 | – |
| Cc1onc(-c2ccccc2)c1COc1ccc(/C=C/C(=O)N[C@@H](Cc2ccccc2)C(=O)O)cc1 [KS-042, (E)-(3-(4-((5-methyl-3-phenylisoxazol-4-yl)methoxy)phenyl)acryloyl)-L-phenylalanine] | 1.41 | – |
| CCOC(=O)CNC(=O)/C=C/c1ccc(OCc2ccc(OC(F)(F)F)cc2)cc1 [KS-003, ethyl (E)-(3-(4-((4-(trifluoromethoxy)benzyl)oxy)phenyl)acryloyl)glycinate] | 1.1 | – |
| CCOC(=O)[C@@H](NC(=O)/C=C/c1ccc(OCc2c(-c3ccccc3)noc2C)cc1)C(C)C [KS-033, ethyl (E)-(3-(4-((5-methyl-3-phenylisoxazol-4-yl)methoxy)phenyl)acryloyl)-L-valinate] | 0.93 | – |
| CC(C)c1onc(-c2c(Cl)cccc2Cl)c1COc1ccc(/C=C/C(=O)NCCC(=O)O)cc1 [KS-046, (E)-3-(3-(4-((3-(2,6-dichlorophenyl)-5-isopropylisoxazol-4-yl)methoxy)phenyl)acrylamido)propanoic acid] | 11.4 | superior to GW4064 |
| CCOC(=O)CNC(=O)/C=C/c1ccc(OCc2c(-c3c(Cl)cccc3Cl)noc2C(C)C)cc1 [KS-010, ethyl (E)-(3-(4-((3-(2,6-dichlorophenyl)-5-isopropylisoxazol-4-yl)methoxy)phenyl)acryloyl)glycinate] | 10.5 | superior to GW4064 |
| O=C(O)CNC(=O)/C=C/c1ccc(OCc2ccc(F)cc2)cc1 [KS-017, (E)-(3-(4-((4-fluorobenzyl)oxy)phenyl)acryloyl)glycine] | 1.14 | – |
| COC(=O)[C@@H](C)NC(=O)/C=C/c1ccc(OCc2c(-c3c(Cl)cccc3Cl)noc2C(C)C)cc1 [KS-049, methyl (E)-(3-(4-((3-(2,6-dichlorophenyl)-5-isopropylisoxazol-4-yl)methoxy)phenyl)acryloyl)-D-alaninate] | 9.55 | superior to GW4064 |
| Cc1onc(-c2ccccc2)c1COc1ccc(/C=C/C(=O)N[C@@H](C)C(=O)O)cc1 [KS-030, (E)-(3-(4-((5-methyl-3-phenylisoxazol-4-yl)methoxy)phenyl)acryloyl)-L-alanine] | 0.82 | – |
| COC(=O)[C@H](Cc1ccccc1)NC(=O)/C=C/c1ccc(OCc2c(-c3ccccc3)noc2C)cc1 [KS-039, methyl (E)-(3-(4-((5-methyl-3-phenylisoxazol-4-yl)methoxy)phenyl)acryloyl)-L-phenylalaninate] | 1.06 | – |
| O=C(O)CNC(=O)/C=C/c1ccc(OCc2ccc([N+](=O)[O-])cc2)cc1 [KS-018, (E)-(3-(4-((4-nitrobenzyl)oxy)phenyl)acryloyl)glycine] | 1.28 | – |
| CCOC(=O)CNC(=O)/C=C/c1ccc(OCc2ccc(-c3ccccc3)cc2)cc1 [KS-004, ethyl (E)-(3-(4-([1,1′-biphenyl]-4-ylmethoxy)phenyl)acryloyl)glycinate] | 2.03 | – |
| Cc1onc(-c2c(Cl)cccc2Cl)c1COc1ccc(/C=C/C(=O)N[C@@H](C)C(=O)O)cc1 [KS-029, (E)-(3-(4-((3-(2,6-dichlorophenyl)-5-methylisoxazol-4-yl)methoxy)phenyl)acryloyl)-L-alanine] | 1.71 | – |
| COC(=O)[C@H](Cc1ccccc1)NC(=O)/C=C/c1ccc(OCc2c(-c3c(Cl)cccc3Cl)noc2C(C)C)cc1 [KS-037, methyl (E)-(3-(4-((3-(2,6-dichlorophenyl)-5-isopropylisoxazol-4-yl)methoxy)phenyl)acryloyl)-L-phenylalaninate] | 7.95 | superior to GW4064 |
| CCOC(=O)CNC(=O)/C=C/c1ccc(OCc2ccccc2)cc1 [KS-002, ethyl (E)-(3-(4-(benzyloxy)phenyl)acryloyl)glycinate] | 1.22 | – |
| COC(=O)CCNC(=O)/C=C/c1ccc(OCc2c(-c3c(Cl)cccc3Cl)noc2C(C)C)cc1 [KS-043, methyl (E)-3-(3-(4-((3-(2,6-dichlorophenyl)-5-isopropylisoxazol-4-yl)methoxy)phenyl)acrylamido)propanoate] | 10 | superior to GW4064 |
| COC(=O)CCNC(=O)/C=C/c1ccc(OCc2c(-c3c(Cl)cccc3Cl)noc2C)cc1 [KS-044, methyl (E)-3-(3-(4-((3-(2,6-dichlorophenyl)-5-methylisoxazol-4-yl)methoxy)phenyl)acrylamido)propanoate] | 2.21 | – |
| CC(C)c1onc(-c2c(Cl)cccc2Cl)c1COc1ccc(/C=C/C(=O)N[C@@H](C)C(=O)O)cc1 [KS-028, (E)-(3-(4-((3-(2,6-dichlorophenyl)-5-isopropylisoxazol-4-yl)methoxy)phenyl)acryloyl)-L-alanine] | 7.44 | superior to GW4064 |

Reference: patent US12552755B2, “Cinnamic amide derivative having FXR activating effect, pharmaceutical composition containing the same as active ingredient, and method for preparing the same” (KYUNGSUNG UNIVERSITY INDUSTRY COOPERATION FOUNDATION, priority 2019, dated 2026)
